# Data from US20040248919A1, “Fluorinated trienes and their use as rxr modulators” (priority 2001, published 2004).
# pKi: −log10 of the molar value.
# Assays:
# RXRα = biological target: T1, RXRα (Homo sapiens, UniProt P19793); experiment: RXR binding, competition with tritiated retinoid; settings: read-out: RXR Binding alpha
# T1 sequence (P19793 1-462): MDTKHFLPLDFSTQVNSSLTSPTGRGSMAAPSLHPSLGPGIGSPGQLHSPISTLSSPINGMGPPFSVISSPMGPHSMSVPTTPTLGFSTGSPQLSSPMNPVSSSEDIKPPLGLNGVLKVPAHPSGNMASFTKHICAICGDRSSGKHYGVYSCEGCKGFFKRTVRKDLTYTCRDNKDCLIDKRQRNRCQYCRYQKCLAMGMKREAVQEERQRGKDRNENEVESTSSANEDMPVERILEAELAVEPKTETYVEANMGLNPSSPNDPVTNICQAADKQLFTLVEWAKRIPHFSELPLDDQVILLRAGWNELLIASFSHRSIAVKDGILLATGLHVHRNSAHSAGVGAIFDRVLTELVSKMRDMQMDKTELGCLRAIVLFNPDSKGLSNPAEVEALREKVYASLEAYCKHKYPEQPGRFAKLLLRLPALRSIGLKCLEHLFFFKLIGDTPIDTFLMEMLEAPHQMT
# Source text: In addition to the cotransfection data, the binding of selected compounds of the present invention to the RAR and RXR receptors was also investigated according to the methodology described in M. F., Boehm, et al., “Synthesis and Structure-Activity Relation-ships of Novel Retinoid X Receptor Selective Retinoids”, 37 J. Med. Chem., 2930 (1994); M. F. Boehm, et al., “Synthesis of High Specific Activity [^3H]-9-cis Retinoic Acid and Its Application for Identifying Retinoids with Unusual Binding Properties”, 37 J. Med. Chem., 408 (1994), and E. A. Allegretto, et al., “Characterization and Comparison of Hormone-Binding and Transactivation Properties of Retinoic Acid and Retinoid X Receptors Expressed in Mammalian Cells and Yeast”, 268 J. Biol. Chem., 22625 (1993), the disclosures of which are herein incorporated by reference.
# Non-specific binding was defined as that binding remaining in the presence of 500 nM of the appropriate unlabelled compound. At the end of the incubation period, bound ligand was separated from free. The amount of bound tritiated retinoid was determined by liquid scintillation counting of an aliquot (700 μL) of the supernatant fluid or the hydroxylapatite pellet.
# After correcting for non-specific binding, IC50 values were determined. The IC50 value is defined as the concentration of competing ligand needed to reduce specific binding by 50%. The IC50 value was determined graphically from a log-logit plot of the data. The Ki values were determined by application of the Cheng-Prussof equation to the IC50 values, the labeled ligand concentration and the Kd of the labeled ligand.
# RXR:RAR heterodimer = RXR:RAR heterodimer co-transfection assay (RARa Synergy CTF) in CV-1 cells; format: cell-based, human; settings: for RARa Synergy CTF % Efficacy: agonist efficacy
# Source text: In the co-transfection assay, cloned cDNA for one or more IRs (e.g. human RARα, RXRα, or PPARγ), alone or in combination (i.e. for heterodimer assays) under the control of a constitutive promoter (e.g., the SV 40, RSV or CMV promoter) is introduced by transfection (a procedure to introduce exogenous genes into cells) into a background cell substantially devoid of endogenous IRs. These introduced gene(s) direct the recipient cells to make the IR protein(s) of interest. A further gene is also introduced (co-transfected) into the same cells in conjunction with the IR gene(s). This further gene, comprising the cDNA for a reporter protein, such as firefly luciferase (LUC), controlled by an appropriate hormone responsive promoter containing a hormone response element (HRE). This reporter plasmid functions as a reporter for the transcriptional-modulating activity of the target IR(s). Thus, the reporter acts as a surrogate for the products (mRNA then protein) normally expressed by a gene under control of the target receptor(s) and their native hormone(s).
# The RXR modulator compounds of the present invention were further tested for activity on RXR heterodimers with RARα utilizing the cotransfection assay in CV-1 cells as described in Example 12B. The RXR:RAR heterodimer cotransfection assays utilized the following expression plasmids and reporter plasmid: pRShRARα (10 ng/well, Giguere et al., 330 Nature, 624 (1987) the disclosure of which is herein incorporated by reference) or pRShRARγ (10 ng/well, Ishikawa et al., 4 Mol. Endocrin, 837 (1990) the disclosure of which is herein incorporated by reference) with Δ-MTV-LUC (50 ng/well, Hollenberg and Evans, 55 Cell, 899 (1988), the disclosure of which is herein incorporated by reference) containing an RARE which is referred to as two copies of the TRE-palindromic response element described in Umesono et al., 336 Nature, 262 (1988), the disclosure of which is herein incorporated by reference. To conduct a RXR:PPARγ heterodimer cotransfection assay, the RXRα receptor expression plasmid, pRShRXRα (10 ng/well), can be cotransfected with the PPARγ expression plasmid, pCMVhPPARγ (10 ng/well), and a reporter plasmid containing three copies of a PPARγ response element (pPREA3-tk-LUC, 50 ng/well; Mukherjee et al. 272 Journ. Biol. Chem., 8071-8076 (1997) and references cited therein, the disclosures of which are herein incorporated by reference).
# Cotransfections were performed as described in Example 12B. For determination of agonist activity in the context of the RXR:RAR heterodimer, media containing compounds of the present invention in concentrations ranging from 10^−10 to 10^−5 M were added to the cells. Similarly, the reference compounds all-trans retinoic acid (ATRA)(Sigma Chemical) and TTNPB ((E)-4-[2-(5,6,7,8-tetrahydro-5,5,8,8-tetramethyl-2-naphthalenyl)-1-propenyl]benzoic acid: Hoffman LaRoche, Inc.), known RAR agonist compounds were added at similar concentrations to provide a reference point for analysis of the agonist activity of the compounds of the present invention. Antagonist efficacy and IC50 values were determined as in Example 12B.
# RAR suppresses RXR ligand binding and transactivation of typical RXR agonists (e.g., LGD1069, LG100268) via allosteric interactions. Forman, B. M., Umesono, K., Chen, J., & Evans, R. M., Cell 81, 541-550 (1995) and Kurokawa, R., et. al. Nature 371, 528-531 (1994). However, when RAR is occupied, typical RXR agonists activate the heterodimer. Forman, B. M., Umesono, K, Chen, J., & Evans, R. M., Cell 81, 541-550 (1995) and Roy, B., Taneja, R., & Chambon, P., Mol. Cell. Biol. 15, 6481-6487 (1995). To examine the effects of the compounds of the present invention on the transcriptional properties of the RXR:RAR heterodimer, a heterodimer cotransfection assay as described above was employed.
Compound,pKi (RXRα),RARa Synergy CTF fold induction (RXR:RAR heterodimer),RARa Synergy CTF % Efficacy (RXR:RAR heterodimer)
"C/C(=C/C=C(F)/C(C)=C/C(=O)O)c1cc(C(C)(C)C)cc(C(C)(C)C)c1OCC(F)F [Example 1, 7-[3,5-di-tert-butyl-2-(2,2-difluoroethoxy)-phenyl]4-fluoro-3-methyl-octa-2,4,6-trienoic acid]",8.32,3,28%
"C/C(=C/C(F)=C/C(C)=C/C(=O)O)c1cc(C(C)(C)C)cc(C(C)(C)C)c1OCC(F)F [Example 2, 7-[3,5-Di-tert-butyl-2-(2,2-difluoroethoxy)-phenyl]-5-fluoro-3-methyl-octa-2,4,6-trienoic acid]",8.09,9,112%
"CCCCOc1c(\C(C)=C/C=C/C(=C/C(=O)O)C(F)(F)F)cc(C(C)C)cc1C(C)C [Example 3, (2Z,4E,6Z)-7-(2-Butoxy-3,5-diisopropylphenyl)-3-trifluoromethyl-octa-2,4,6-trienoic acid]",5.88,1,6%
"CCCCOc1c(\C(C)=C/C=C/C(=C\C(=O)O)C(F)(F)F)cc(C(C)C)cc1C(C)C [Example 4, (2E,4E,6Z)-7-(2-Butoxy-3,5-diisopropylphenyl)-3-trifluoromethyl-octa-2,4,6-trienoic acid]",5.04,1,6%
"CCOc1c(\C(=C/C=C/C(C)=C/C(=O)O)C(F)(F)F)cc(C(C)(C)C)cc1C(C)(C)C [Example 5, (2E,4E,6E)-3-methyl-7-(2-ethoxy-3,5-di-tert-butylphenyl)-8,8,8-trifluoroocta-2,4,6-trienoic acid]",7.42,,7%
